# Laboratory results reported in article PMC9635472, “Design, synthesis, and biological evaluation of novel ciprofloxacin derivatives as potential anticancer agents targeting topoisomerase II enzyme” (Journal of Enzyme Inhibition and Medicinal Chemistry, 2022).
# Columns and labels:
# [1] = system: human prostate carcinoma (PC-3) cell line; experiment: MTT cell viability assay, PC-3 cells; assay type: cell-based; conditions: prostate cancer cell line PC-3, treatment for 24 h (table title), means of three experiments, read-out: IC50 (μM* ± SD) PC-3
# Method: (§1) Human bladder cancer (T-24) and human prostate carcinoma (PC-3) cell lines were obtained from American Type Culture Collection (ATCC; Manassas, VA USA). Cells were maintained in Dulbecco’s modified Eagle medium with 10% foetal bovine serum at 37 °C and 5% CO2. All the operations were carried out under strict aseptic conditions. The culture medium was removed to a centrifuge tube containing 9.0 ml complete culture medium and spanned at approximately 125 × g for 5 to 7 min. The cell layer was rinsed with 0.25% (w/v) trypsin- […] EDTA solution by which all traces of serum-containing inhibitor were removed. Trypsin EDTA solution 2.0 to 3.0 ml was added to a flask and cells were monitored under an inverted microscope until the cell layer was dispersed (usually within 5–15 min). A complete growth medium was added (6.0–8.0 ml), and cells were aspirated by gentle pipetting. The cell pellet was suspended with the recommended complete medium and dispensed into a 75 cm^2 culture flask. The culture vessel containing the complete growth medium was placed in the incubator for 24 h to at 37 °C. The cells were treated with different concentrations (0.39, 1.60, 6.25, 25, and 100 μg/ml) of each of the test compounds or doxorubicin, […], then the plates were examined under the inverted microscope and finally the MTT assay was carried out.
# (§2) Anti-cancer activity of the newly synthesised compounds was evaluated in vitro against both T-24 and PC-3 cell lines according to the MTT method. Cells were seeded into 96-well plates (flat bottom) at a density of 10 000 cells/well for 24 h. The vial of MTT to be used was reconstituted with 3 ml of medium or balanced salt solution without phenol red and serum. then, a reconstituted MTT vial was added in an amount equal to 10% of the culture medium volume. Cultures were incubated for 2–4 h depending on the cell type and maximum cell density and removed from the incubator and the formazan crystals were dissolved via the addition of an amount of MTT solubilisation solution (M-8910) equal to the original culture medium volume. ROBONIK P2000 spectrophotometer at a wavelength of 570 nm was used to measure the colour intensity spectrophotometrically. The survival curve of both T-24 and PC-3 cells was obtained by plotting the percentage of surviving cells against the drug after each compound. The IC50 value for each test compound and the reference drug doxorubicin was calculated.
# (§3) In this study, all the newly synthesised CP derivatives were subjected to anticancer activity evaluation against bladder (T-24) and prostate cancer (PC-3) cell lines. The compounds were evaluated for their activity using 5 doses determinations (100 μg/ml, 25 μg/ml, 6.25 μg/ml, 1.60 μg/ml, and 0.39 μg/ml). Their half-maximal inhibitory concentration (IC50) values were measured. Doxorubicin was chosen as a reference anticancer drug[65].
# [2] = system: Human bladder cancer (T-24) cell line; experiment: MTT cell viability assay, T-24 cells; assay type: cell-based; conditions: bladder cancer cell line T-24, treatment for 24 h (table title), means of three experiments, read-out: IC50 (μM* ± SD) T-24
# Method: as §1, §2, §3
smiles,measurement,setting,value
"CC1=NN(C(=O)CN2CCN(c3cc4c(cc3F)c(=O)c(C(=O)O)cn4C3CC3)CC2)C(=O)C1 [Compound 3, 1-cyclopropyl-6-fluoro-7-(4-(2-(3-methyl-5-oxo-4,5-dihydro-1H-pyrazol-1-yl)-2-oxoethyl)piperazin-1-yl)-4-oxo-1,4-dihydroquinoline-3-carboxylic acid]",melting point,,188 to 190 °C
same,IC50,[1],98.2 ± 5 µM
same,IC50,[2],37.3 ± 2.02 µM
"N=C1CC(=O)NN1C(=O)CN1CCN(c2cc3c(cc2F)c(=O)c(C(=O)O)cn3C2CC2)CC1 [Compound 4, 1-cyclopropyl-6-fluoro-7-(4-(2-(5-imino-3-oxopyrazolidin-1-yl)-2-oxoethyl)piperazin-1-yl)-4-oxo-1,4-dihydroquinoline-3-carboxylic acid]",melting point,,181 to 183 °C
same,IC50,[1],29.9 ± 1.53 µM
same,IC50,[2],25.5 ± 1.38 µM
"Cc1cc(C)n(C(=O)CN2CCN(c3cc4c(cc3F)c(=O)c(C(=O)O)cn4C3CC3)CC2)n1 [Compound 5, 1-cyclopropyl-7-(4-(2-(3,5-dimethyl-1H-pyrazol-1-yl)-2-oxoethyl)piperazin-1-yl)-6-fluoro-4-oxo-1,4-dihydro-quinoline-3-carboxylic acid]",IC50,[1],24.9 ± 1.26 µM
same,IC50,[2],25.9 ± 1.39 µM
"CC(=NNC(=O)CN1CCN(c2cc3c(cc2F)c(=O)c(C(=O)O)cn3C2CC2)CC1)c1ccc(N)cc1 [Compound 7c, 7-(4-(2-(2-(1-(4-Aminophenyl)ethylidene)hydrazinyl)-2-oxoethyl)-piperazin-1-yl)-1-cyclopropyl-6-fluoro-4-oxo-1,4-dihydroquinoline-3-carboxylic acid]",melting point,,173 to 175 °C
same,IC50,[1],32.8 ± 0.86 µM
same,IC50,[2],25.6 ± 0.71 µM
"CC(=NNC(=O)CN1CCN(c2cc3c(cc2F)c(=O)c(C(=O)O)cn3C2CC2)CC1)c1ccccc1O [Compound 7d, 1-Cyclopropyl-6-fluoro-7-(4-(2-(2-(1-(2-hydroxyphenyl)ethylidene)hydrazinyl)-2-oxoethyl)piperazin-1-yl)-4-oxo-1,4-dihydroquinoline-3-carboxylic acid]",melting point,,166 to 168 °C
same,IC50,[1],8.81 ± 0.44 µM
same,IC50,[2],88 ± 4.75 µM
"CC(=NNC(=O)CN1CCN(c2cc3c(cc2F)c(=O)c(C(=O)O)cn3C2CC2)CC1)c1cccs1 [Compound 7e, 1-Cyclopropyl-6-fluoro-4-oxo-7-(4-(2-oxo-2-(2-(1-(thiophen-2-yl)ethylidene)hydrazinyl)ethyl)piperazin-1-yl)-1,4-dihydroquinoline-3-carboxylic acid]",melting point,,245 to 247 °C
same,IC50,[1],50.5 ± 10.4 µM
same,IC50,[2],25 ± 0.2 µM
"CC(=NNC(=O)CN1CCN(c2cc3c(cc2F)c(=O)c(C(=O)O)cn3C2CC2)CC1)c1ccc(Cl)s1 [Compound 7f, 7-(4-(2-(2-(1-(5-Chlorothiophen-2-yl)ethylidene)hydrazinyl)-2-oxoethyl)piperazin-1-yl)-1-cyclopropyl-6-fluoro-4-oxo-1,4-dihydro-quinoline-3-carboxylic acid]",melting point,,286 to 288 °C
same,IC50,[1],136 ± 6.94 µM
same,IC50,[2],124 ± 6.7 µM
"O=C(CN1CCN(c2cc3c(cc2F)c(=O)c(C(=O)O)cn3C2CC2)CC1)NN=C1C(=O)Nc2cccc(Br)c21 [Compound 8b, 7-(4-(2-(2-(4-Bromo-2-oxoindolin-3-ylidene)hydrazinyl)-2-oxoethyl)piperazin-1-yl)-1-cyclopropyl-6-fluoro-4-oxo-1,4-dihydro-quinoline-3-carboxylic acid]",melting point,,263 to 265 °C
same,IC50,[1],41.1 ± 2.09 µM
same,IC50,[2],336 ± 18.1 µM
"Cc1cccc(Cl)c1NC(=O)NNC(=O)CN1CCN(c2cc3c(cc2F)c(=O)c(C(=O)O)cn3C2CC2)CC1 [Compound 9b, 7-(4-(2-(2-((2-Chloro-6-methylphenyl)carbamoyl)hydrazinyl)-2-oxoethyl)piperazin-1-yl)-1-cyclopropyl-6-fluoro-4-oxo-1,4-dihydro-quinoline-3-carboxylic acid]",melting point,,285 to 287 °C
same,IC50,[1],19.3 ± 0.98 µM
same,IC50,[2],28.6 ± 1.54 µM
"COc1ccc(NC(=S)NNC(=O)CN2CCN(c3cc4c(cc3F)c(=O)c(C(=O)O)cn4C3CC3)CC2)cc1 [Compound 9c, 1-Cyclopropyl-6-fluoro-7-(4-(2-(2-((4-methoxyphenyl)carbamo-thioyl)hydrazinyl)-2-oxoethyl)piperazin-1-yl)-4-oxo-1,4-dihydroquinoline-3-carboxylic acid]",melting point,,238 to 240 °C
same,IC50,[1],4.85 ± 0.27 µM
same,IC50,[2],134 ± 7.23 µM
"O=C(CN1CCN(c2cc3c(cc2F)c(=O)c(C(=O)O)cn3C2CC2)CC1)NNCC(=O)c1ccccc1 [Compound 10a, 1-Cyclopropyl-6-fluoro-4-oxo-7-(4-(2-oxo-2-(2-(2-oxo-2-phenyl-ethyl)hydrazinyl)ethyl)piperazin-1-yl)-1,4-dihydroquinoline-3-carboxylic acid]",melting point,,183 to 185 °C
same,IC50,[1],74.3 ± 3.78 µM
same,IC50,[2],45.4 ± 2.45 µM
"O=C(CN1CCN(c2cc3c(cc2F)c(=O)c(C(=O)O)cn3C2CC2)CC1)NNCC(=O)c1cccc(Br)c1 [Compound 10b, 7-(4-(2-(2-(2-(3-Bromophenyl)-2-oxoethyl)hydrazinyl)-2-oxo-ethyl)piperazin-1-yl)-1-cyclopropyl-6-fluoro-4-oxo-1,4-dihydroquinoline-3-carboxylic acid]",melting point,,210 to 215 °C
same,IC50,[1],3.38 ± 0.18 µM
same,IC50,[2],17.2 ± 0.93 µM
"O=C(CN1CCN(c2cc3c(cc2F)c(=O)c(C(=O)O)cn3C2CC2)CC1)NN1C(=O)CCC1=O [Compound 11, 1-cyclopropyl-7-(4-(2-((2,5-dioxopyrrolidin-1-yl)amino)-2-oxoethyl)piperazin-1-yl)-6-fluoro-4-oxo-1,4-dihydroquinoline-3-carboxylic acid]",melting point,,184 to 186 °C
same,IC50,[1],82.2 ± 4.18 µM
same,IC50,[2],68.5 ± 3.69 µM
"O=C(CN1CCN(c2cc3c(cc2F)c(=O)c(C(=O)O)cn3C2CC2)CC1)NN1C(=O)c2ccccc2C1=O [Compound 12, 1-cyclopropyl-7-(4-(2-((1,3-dioxoisoindolin-2-yl)amino)-2-oxoethyl)piperazin-1-yl)-6-fluoro-4-oxo-1,4-dihydroquinoline-3-carboxylic acid]",melting point,,190 to 192 °C
same,IC50,[1],126 ± 6.39 µM
same,IC50,[2],47 ± 1.09 µM
"NC(=S)NNC(=O)CN1CCN(c2cc3c(cc2F)c(=O)c(C(=O)O)cn3C2CC2)CC1 [Compound 13, 7-(4-(2-(2-carbamothioylhydrazinyl)-2-oxoethyl)piperazin-1-yl)-1-cyclopropyl-6-fluoro-4-oxo-1,4-dihydroquinoline-3-carboxylic acid]",melting point,,188 to 200 °C
same,IC50,[1],30.5 ± 1.56 µM
same,IC50,[2],34.5 ± 1.86 µM
"O=C(CN1CCN(c2cc3c(cc2F)c(=O)c(C(=O)O)cn3C2CC2)CC1)NN=C1NC(=O)CS1 [Compound 14, 1-cyclopropyl-6-fluoro-4-oxo-7-(4-(2-oxo-2-(2-(4-oxothiazolidin-2-ylidene)hydrazinyl)ethyl)piperazin-1-yl)-1,4-dihydroquinoline-3-carboxylic acid]",melting point,,240 to 242 °C
same,IC50,[1],6.49 ± 0.24 µM
same,IC50,[2],19.5 ± 0.58 µM
"O=C(CN1CCN(c2cc3c(cc2F)c(=O)c(C(=O)O)cn3C2CC2)CC1)NN=c1[nH]c(-c2ccccc2)cs1 [Compound 15, 1-cyclopropyl-6-fluoro-4-oxo-7-(4-(2-oxo-2-(2-(4-phenylthiazol-2(3H)-ylidene)hydrazinyl)ethyl)piperazin-1-yl)-1,4-dihydroquinoline-3-carboxylic acid]",melting point,,256 to 258 °C
same,IC50,[1],7.54 ± 0.39 µM
same,IC50,[2],15.9 ± 0.87 µM
